One experiment has as its target BRD4(D1) (Homo sapiens (Human), UniProt O60885). Kind of experiment: Inhibitory activity against BRD4(D1), HTRF assay. In kind it is binding. As to the method: (§1) (+)-JQ1 was used as comparison compound, to evaluated the inhibitory activity of compounds of the invention against BRD4(D1) and BRD4(D2) in vitro.
(§2) The assays of BRD4 (D1) and BRD4 (D2) were conducted in a 384-well polystyrene plate. The test compounds were first serially diluted in DMSO and the test compound/DMSO were transferred to 384-well plates. The final concentration of DMSO in the assay was 0.1%. 2 volumes of protein/peptide mixture were added into 384-well plates, then 2 volumes of assay mixture were added, and shake for 30 s. The plate was incubated at room temperature for 2 h. Then the HTRF signal on EnVision was readed.
(§3) Use equation (1) to fit the date in Excel to obtain the value of the inhibition rate. Inhibition rate (%)=(maximum value−signal value)/(maximum value−minimum value)*100 Equation(1):
(§4) IC50 determination was performed by fitting the data using GraphPad Prism 5.0 software and equation (2). Y=bottom+(Top−bottom)/(1+10^((Log IC50−X)*HillSlope)); Equation(2): wherein, Y represents the percentage of inhibition (%); X represents the concentration of test compounds.
(§5) The IC50 data of the examples were provided in the following table, wherein, A stands for IC50<100 nM; B stands for IC50 is 100-300 nM; C stands for IC50>300 nM.
(In TR-FRET formats the signal depends on donor and acceptor labels being close together.)

The target in the next experiment is BRD4(D2) (Homo sapiens (Human), UniProt O60885). Kind of experiment: Inhibitory activity against BRD4(D2), HTRF assay. The format is binding. The method, then:
as §1, §2, §3, §4, §5

Results on 24 compounds are retold here after patent US11466034B2, “Compound functioning as bromodomain protein inhibitor, and composition” (Betta Pharmaceuticals Co., Ltd., priority 2017, dated 2022).

A word on the IC50: it is the concentration that gives 50% inhibition.

A value given as a limit tells only on which side of the number the result lay.

For the compound `CCS(=O)(=O)Nc1cc(-c2cn(C)c(=O)c3[nH]ccc23)cc2c1nc(C)n2Cc1ccc(S(C)(=O)=O)cc1` [Example 56, N-(2-methyl-6-(6-methyl-7-oxo-6,7-dihydro-1H-pyrrolo[2,3-c]pyridin-4-yl)-1-(4-(methylsulfonyl)benzyl)-1H-benzo[d]imidazol-4-yl)ethanesulfonamide], the IC50 at BRD4(D1) (class symbols) and at BRD4(D2) (class symbols) was less than 100 nM throughout.

As to `CCS(=O)(=O)Nc1cc(-c2cn(C)c(=O)c3[nH]ccc23)cc2c1nc(C)n2Cc1ccc(C(F)(F)F)c(Cl)c1` [Example 52, N-(2-methyl-6-(6-methyl-7-oxo-6,7-dihydro-1H-pyrrolo[2,3-c]pyridin-4-yl)-1-(3-chloro-4-(trifluoromethyl)benzyl)-1H-benzo[d]imidazol-4-yl)ethanesulfonamide], the IC50 at BRD4(D1) (class symbols) and on BRD4(D2) (class symbols) was less than 100 nM in each case.

Turning to `COc1ccc(Cn2c(C)nc3ncc(-c4cn(Cc5nccs5)c(=O)c5[nH]ccc45)cc32)cc1` [Example 14, 4-(1-(4-methoxybenzyl)-2-methyl-1H-imidazo[4,5-b]pyridin-6-yl)-6-(thiazol-2-ylmethyl)-1,6-dihydro-7H-pyrrolo[2,3-c]pyridin-7-one], the IC50 was 100 to 300 nM at BRD4(D1) (class symbols) and greater than 300 nM on BRD4(D2) (class symbols).

As to `Cn1cc(-c2cnc3ncnc(Nc4ccc(Cl)cc4)c3c2)c2cc[nH]c2c1=O` [Example 37, 4-(4-((4-chlorophenyl)amino)pyrido[2,3-d]pyrimidin-6-yl)-6-methyl-1,6-dihydro-7H-pyrrolo[2,3-c]pyridin-7-one], the IC50 at BRD4(D1) (class symbols) and against BRD4(D2) (class symbols) was greater than 300 nM throughout.

Turning to `CCS(=O)(=O)Nc1cc(-c2cn(C)c(=O)c3[nH]ccc23)nc2c1nc(C)n2Cc1ccccc1C(F)(F)F` [Example 66, N-(2-methyl-5-(6-methyl-7-oxo-6,7-dihydro-1H-pyrrolo[2,3-c]pyridin-4-yl)-3-(2-(trifluoromethyl)benzyl)-3H-imidazo[4,5-b]pyridin-7-yl)ethanesulfonamide], the IC50 against BRD4(D1) (class symbols) and against BRD4(D2) (class symbols) was less than 100 nM each time.

On to `CCS(=O)(=O)Nc1cc(-c2cn(C)c(=O)c3[nH]ccc23)cc2c1nc(C)n2Cc1ccc(C(F)(F)F)c(F)c1` [Example 51, N-(2-methyl-6-(6-methyl-7-oxo-6,7-dihydro-1H-pyrrolo[2,3-c]pyridin-4-yl)-1-(3-fluoro-4-(trifluoromethyl)benzyl)-1H-benzo[d]imidazol-4-yl)ethanesulfonamide], for which the IC50 against BRD4(D1) (class symbols) and on BRD4(D2) (class symbols) was less than 100 nM throughout.

For the compound `Cc1nc2ncc(-c3cn(C)c(=O)c4[nH]ccc34)cc2n1Cc1ccc(Cl)cc1` [Example 1, 4-(1-(4-chlorobenzyl)-2-methyl-1H-imidazo[4,5-b]pyridin-6-yl)-6-methyl-1H-pyrrolo[2,3-c]pyridin-7(6H)-one], the IC50 on BRD4(D1) (numeric values) is 7 nM; on BRD4(D2) (numeric values) it was 2.5 nM.

`Cc1nc2ncc(-c3cn(C)c(=O)c4[nH]ccc34)nc2n1Cc1ccc(F)cc1F` [Example 31, 4-(1-(2,4-difluorobenzyl)-2-methyl-1H-imidazo[4,5-b]pyrazin-6-yl)-6-methyl-1H-pyrrolo[2,3-c]pyridin-7(6H)-one]: the IC50 against BRD4(D1) (class symbols) and against BRD4(D2) (class symbols) was less than 100 nM in each case.

On to `Cc1nc2ncc(-c3cn(C)c(=O)c4[nH]ccc34)nc2n1Cc1ccccc1` [Example 22, 4-(1-benzyl-2-methyl-1H-imidazo[4,5-b]pyrazin-6-yl)-6-methyl-1H-pyrrolo[2,3-c]pyrid in-7(6H)-one], for which the IC50 at BRD4(D1) (class symbols) and against BRD4(D2) (class symbols) was less than 100 nM each time.

With `CCS(=O)(=O)Nc1cc(-c2cn(C)c(=O)c3[nH]ccc23)nc2c1nc(C)n2Cc1ccc(C(F)(F)F)cc1` [Example 65, N-(2-methyl-5-(6-methyl-7-oxo-6,7-dihydro-1H-pyrrolo[2,3-c]pyridin-4-yl)-3-(4-(trifluoromethyl)benzyl)-3H-imidazo[4,5-b]pyridin-7-yl)ethanesulfonamide], the IC50 on BRD4(D1) (class symbols) and on BRD4(D2) (class symbols) was less than 100 nM in each case.

For `Cn1cc(-c2ccc3ccn(S(=O)(=O)c4ccc(Cl)cc4)c3n2)c2cc[nH]c2c1=O` [Example 40, 4-(1-((4-chlorophenyl)sulfonyl)-1H-pyrrolo[2,3-b]pyridin-6-yl)-6-methyl-1,6-dihydro-7H-pyrrolo[2,3-c]pyridin-7-one], the IC50 was 10.5 nM against BRD4(D1) (numeric values) and 2.5 nM at BRD4(D2) (numeric values).

As to `CCS(=O)(=O)Nc1cc(-c2cn(C)c(=O)c3[nH]ccc23)nc2c1ncn2C(C)c1ccc(Cl)cc1` (stereo not drawn) [Example 60, N-(3-(1-(4-chlorophenyl)ethyl)-5-(6-methyl-7-oxo-6,7-dihydro-1H-pyrrolo[2,3-c]pyridin-4-yl)-3H-imidazo[4,5-b]pyridin-7-yl)ethanesulfonamide], the IC50 at BRD4(D1) (class symbols) and against BRD4(D2) (class symbols) was 100 to 300 nM in each case.

For `COc1cccc(Cn2c(C)nc3ncc(-c4c[nH]c(=O)c5[nH]c(C)cc45)cc32)c1` [Example 16, 4-(1-(3-methoxybenzyl)-2-methyl-1H-imidazo[4,5-b]pyridin-6-yl)-2-methyl-1,6-dihydro-7H-pyrrolo[2,3-c]pyridin-7-one], the IC50 was 100 to 300 nM at BRD4(D1) (class symbols) and less than 100 nM on BRD4(D2) (class symbols).

For the compound `COC(=O)c1ccc(Cn2c(C)nc3ncc(-c4cn(C)c(=O)c5[nH]ccc45)cc32)cc1` [Example 9, methyl 4-((2-methyl-6-(6-methyl-7-oxo-6,7-dihydro-1H-pyrrolo[2,3-c]pyridin-4-yl)-1H-imidazo[4,5-b]pyridin-1-yl)methyl)benzoate], the IC50 against BRD4(D1) (class symbols) and at BRD4(D2) (class symbols) was 100 to 300 nM each time.

`COc1ccc(Cn2c(C)nc3ncc(-c4cn(Cc5ccccc5)c(=O)c5[nH]ccc45)cc32)cc1` [Example 10, 6-benzyl-4-(1-(4-methoxybenzyl)-2-methyl-1H-imidazo[4,5-b]pyridin-6-yl)-1,6-dihydro-7H-pyrrolo[2,3-c]pyridin-7-one]: the IC50 against BRD4(D1) (class symbols) and on BRD4(D2) (class symbols) was greater than 300 nM throughout.

As to `Cc1nc2ncc(-c3cn(C)c(=O)c4[nH]ccc34)cc2n1C` [Example 7, 4-(1,2-dimethyl-1H-imidazo[4,5-b]pyridin-6-yl)-6-methyl-1,6-dihydro-7H-pyrrolo[2,3-c]pyridin-7-one], the values for the IC50 against BRD4(D1) (numeric values) and against BRD4(D2) (numeric values) were 52.4 nM and 10.8 nM, respectively.

For `Cc1nc2ncc(-c3cn(C)c(=O)c4[nH]ccc34)nc2n1Cc1cccc(Cl)c1` [Example 30, 4-(1-(3-chlorobenzyl)-2-methyl-1H-imidazo[4,5-b]pyrazin-6-yl)-6-methyl-1H-pyrrolo[2,3-c]pyridin-7(6H)-one], the IC50 on BRD4(D1) (class symbols) and at BRD4(D2) (class symbols) was less than 100 nM throughout.

As for `COc1ccc(Cn2c(C)nc3ncc(-c4cn(C)c(=O)c5[nH]ccc45)nc32)cc1` [Example 20, 4-(1-(4-methoxybenzyl)-2-methyl-H-imidazo[4,5-b]pyrazin-6-yl)-6-methyl-1H-pyrrol o[2,3-c]pyridin-7(6H)-one], the IC50 against BRD4(D1) (numeric values) came out at 12.8 nM; on BRD4(D2) (numeric values), 2.5 nM.

On to `CCS(=O)(=O)Nc1cc(-c2cn(C)c(=O)c3[nH]ccc23)cc2c1nc(C)n2Cc1ccc(F)cc1Cl` [Example 57, N-(1-(2-chloro-4-fluorobenzyl)-2-methyl-6-(6-methyl-7-oxo-6,7-dihydro-1H-pyrrolo[2,3-c]pyridin-4-yl)-1H-benzo[d]imidazol-4-yl)ethanesulfonamide], for which the IC50 at BRD4(D1) (class symbols) and on BRD4(D2) (class symbols) was less than 100 nM each time.

For `CCS(=O)(=O)Nc1cc(-c2cn(C)c(=O)c3[nH]ccc23)cc2c1nc(C)n2Cc1cccc(Cl)c1` [Example 53, N-(2-methyl-6-(6-methyl-7-oxo-6,7-dihydro-1H-pyrrolo[2,3-c]pyridin-4-yl)-1-(3-chlorobenzyl)-1H-benzo[d]imidazol-4-yl)ethanesulfonamide], the IC50 against BRD4(D1) (class symbols) and against BRD4(D2) (class symbols) was less than 100 nM in each case.

Turning to `CSc1ccc(Cn2c(C)nc3ncc(-c4cn(C)c(=O)c5[nH]ccc45)cc32)cc1` [Example 3, 6-methyl-4-(2-methyl-1-(4-(methylthio)benzyl)-1H-imidazo[4,5-b]pyridin-6-yl)-1H-pyrrolo[2,3-c]pyridin-7(6H)-one], the IC50 at BRD4(D1) (numeric values) came out at 12.7 nM; at BRD4(D2) (numeric values), 3.2 nM.

On to `Cc1nc2ncc(-c3cn(C)c(=O)c4[nH]ccc34)nc2n1Cc1cc(C(F)(F)F)ccc1F` [Example 24, 4-(1-(2-fluoro-5-trifluoromethylbenzyl)-2-methyl-1H-imidazo[4,5-b]pyrazin-6-yl)-6-methyl-1H-pyrrolo[2,3-c]pyridin-7(6H)-one], for which the IC50 at BRD4(D1) (class symbols) and at BRD4(D2) (class symbols) was less than 100 nM throughout.

For the compound `COc1ccc(Cn2c(C)nc3ncc(-c4c[nH]c(=O)c5[nH]c(C)cc45)cc32)cc1` [Example 13, 4-(1-(4-methoxybenzyl)-2-methyl-1H-imidazo[4,5-b]pyridin-6-yl)-2-methyl-1,6-dihydro-7H-pyrrolo[2,3-c]pyridin-7-one], the IC50 against BRD4(D1) (class symbols) and against BRD4(D2) (class symbols) was 100 to 300 nM throughout.

Take `CCS(=O)(=O)Nc1cc(-c2cn(C)c(=O)c3[nH]ccc23)nc2c1ncn2Cc1ccccc1C(F)(F)F` [Example 63, N-(5-(6-methyl-7-oxo-6,7-dihydro-H-pyrrolo[2,3-c]pyridin-4-yl)-3-(2-(trifluoromethyl)benzyl)-3H-imidazo[4,5-b]pyridin-7-yl)ethanesulfonamide]: the IC50 on BRD4(D1) (class symbols) and against BRD4(D2) (class symbols) was less than 100 nM each time.
